This note sets out measurements from publication PMC5714945, “A homologue of the Parkinson’s disease-associated protein LRRK2 undergoes a monomer-dimer transition during GTP turnover” (Nature Communications, 2017).

In general, stoichiometry N refers to the number of molecules, sites or subunits per partner or assembly. The Kd is the constant that tells how readily two partners part at equilibrium. A high value points to lower affinity.

Series [1] has as its target T1, CtRoc-COR (Chlorobaculum tepidum, UniProt Q8KC98, S928C, form not given).
T1 construct: gene CT1526; Roc-COR domains, residues 412-946, N-terminal His-tag (pProEX), E. coli BL21(DE3); dimer nucleotide-free, about 65 kDa monomer
The series can be described thus: stopped-flow Cy3/Cy5 FRET, monomerization. Format: binding. The following applies: 50 µM or 1 µM GTP, Cy3/Cy5-labelled protein, 25 °C.

Series [2] has as its target T2, CtRoc-COR (Chlorobaculum tepidum, UniProt Q8KC98).
T2 construct: gene CT1526; Roc-COR domains, residues 412-946, N-terminal His-tag (pProEX), E. coli BL21(DE3); dimer nucleotide-free, about 65 kDa monomer
T2 sequence (Q8KC98 412-946): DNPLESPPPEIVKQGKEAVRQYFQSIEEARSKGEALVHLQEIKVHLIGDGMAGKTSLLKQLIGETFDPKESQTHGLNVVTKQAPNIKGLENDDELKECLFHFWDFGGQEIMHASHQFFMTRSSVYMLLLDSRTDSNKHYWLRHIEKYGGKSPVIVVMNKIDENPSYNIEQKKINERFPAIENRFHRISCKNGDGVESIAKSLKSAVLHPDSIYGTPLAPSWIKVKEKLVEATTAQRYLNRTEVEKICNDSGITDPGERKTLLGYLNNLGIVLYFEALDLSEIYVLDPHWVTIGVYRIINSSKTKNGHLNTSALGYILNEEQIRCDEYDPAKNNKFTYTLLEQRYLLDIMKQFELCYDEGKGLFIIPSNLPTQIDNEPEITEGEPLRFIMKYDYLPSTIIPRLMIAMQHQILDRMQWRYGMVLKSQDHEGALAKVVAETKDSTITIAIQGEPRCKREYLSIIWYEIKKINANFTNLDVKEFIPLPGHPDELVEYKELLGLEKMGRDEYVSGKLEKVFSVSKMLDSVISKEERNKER
Put plainly: SEC-SAXS (conformational change). In kind it is binding. The following applies: pre-incubated with 1 mM, pH 7.5, 5 mM MgCl2. For orientation: Size exclusion chromatography separates by hydrodynamic size, large species first.

The target of series [3] is T3, CtRoco (Chlorobaculum tepidum, UniProt Q8KC98).
T3 construct: gene CT1526; full length, residues 1-1102, N-terminal His-tag (pProEX), E. coli BL21(DE3); dimer nucleotide-free, monomer/dimer equilibrium with GppNHp
T3 sequence (Q8KC98 1-1102): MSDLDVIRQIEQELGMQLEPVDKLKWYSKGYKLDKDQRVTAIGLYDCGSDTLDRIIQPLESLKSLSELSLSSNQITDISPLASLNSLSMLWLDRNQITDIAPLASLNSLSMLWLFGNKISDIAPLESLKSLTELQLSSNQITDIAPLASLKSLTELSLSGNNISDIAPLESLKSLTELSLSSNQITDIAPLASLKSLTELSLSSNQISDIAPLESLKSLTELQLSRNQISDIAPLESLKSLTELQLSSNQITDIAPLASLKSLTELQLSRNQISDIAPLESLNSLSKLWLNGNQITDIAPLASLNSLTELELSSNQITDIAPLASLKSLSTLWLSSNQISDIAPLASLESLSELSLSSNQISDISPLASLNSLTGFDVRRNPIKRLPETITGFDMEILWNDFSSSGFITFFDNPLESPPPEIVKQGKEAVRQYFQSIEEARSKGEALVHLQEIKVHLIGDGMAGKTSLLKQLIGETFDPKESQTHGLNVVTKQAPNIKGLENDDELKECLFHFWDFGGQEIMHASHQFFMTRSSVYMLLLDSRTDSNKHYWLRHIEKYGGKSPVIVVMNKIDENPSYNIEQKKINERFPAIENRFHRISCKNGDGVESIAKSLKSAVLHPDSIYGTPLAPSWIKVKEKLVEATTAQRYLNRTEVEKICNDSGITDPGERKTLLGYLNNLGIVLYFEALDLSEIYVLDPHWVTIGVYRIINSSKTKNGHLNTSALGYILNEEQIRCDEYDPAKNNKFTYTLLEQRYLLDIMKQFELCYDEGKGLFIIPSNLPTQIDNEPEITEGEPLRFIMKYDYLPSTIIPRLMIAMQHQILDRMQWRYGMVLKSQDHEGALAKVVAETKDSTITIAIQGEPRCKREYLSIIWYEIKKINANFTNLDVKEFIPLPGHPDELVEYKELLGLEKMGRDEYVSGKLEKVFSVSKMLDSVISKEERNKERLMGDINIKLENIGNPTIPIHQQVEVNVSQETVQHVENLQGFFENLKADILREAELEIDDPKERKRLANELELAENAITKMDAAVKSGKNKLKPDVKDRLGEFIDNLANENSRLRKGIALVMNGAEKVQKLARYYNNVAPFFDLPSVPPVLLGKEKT
The series can be described thus: SEC-SAXS, AUC, negative-stain EM (conformational and oligomeric change). The note with it: pre-incubated with 1 mM (SAXS, EM), pH 7.5, 5 mM MgCl2. Format: binding.

The target of series [4] is T2, CtRoc-COR. Put plainly: SEC-SAXS, SEC-MALS, native MS, SV-AUC (oligomeric shift). In kind it is binding. The following applies: pre-incubated with 1 mM (SAXS, MALS), pH 7.5, 5 mM MgCl2.
The target in series [5] is T3, CtRoco. Put plainly: SEC-SAXS, SEC-MALS, native MS, AUC, negative-stain EM (oligomeric shift). Format: binding. The following applies: pre-incubated with 1 mM (SAXS, MALS, EM), pH 7.5, 5 mM MgCl2.
Series [6] concerns the molecule itself. Put plainly: native MS; GppNHp: pre-incubated with 500 µM, 100 µM in 150 mM ammonium acetate pH 7.5; protein 12.5-16 µM.
Series [7] concerns the molecule itself. The series can be described thus: SEC-SAXS; nucleotide-free protein; 50 µl of 8 mg ml^-1 injected on a Bio SEC-3 column; 20 mM Hepes pH 7.5, 150 mM NaCl, 5 mM MgCl2, 5% glycerol, 1 mM DTT; mass from Porod volume.
Series [8] deals with the molecule itself. The series can be described thus: AUC; sedimentation equilibrium, with GDP; dimer to monomers; 7.2, 4.5 and 2.7 µM protein; buffer as SV-AUC; SEDPHAT monomer-dimer model; approximate KD.
Series [9] deals with the molecule itself. Put plainly: AUC; sedimentation equilibrium, with GppNHp; dimer to monomers; 7.2, 4.5 and 2.7 µM protein; buffer as SV-AUC; SEDPHAT monomer-dimer model; approximate KD.

T1 sequence (Q8KC98 entry or part of it S928C, form open): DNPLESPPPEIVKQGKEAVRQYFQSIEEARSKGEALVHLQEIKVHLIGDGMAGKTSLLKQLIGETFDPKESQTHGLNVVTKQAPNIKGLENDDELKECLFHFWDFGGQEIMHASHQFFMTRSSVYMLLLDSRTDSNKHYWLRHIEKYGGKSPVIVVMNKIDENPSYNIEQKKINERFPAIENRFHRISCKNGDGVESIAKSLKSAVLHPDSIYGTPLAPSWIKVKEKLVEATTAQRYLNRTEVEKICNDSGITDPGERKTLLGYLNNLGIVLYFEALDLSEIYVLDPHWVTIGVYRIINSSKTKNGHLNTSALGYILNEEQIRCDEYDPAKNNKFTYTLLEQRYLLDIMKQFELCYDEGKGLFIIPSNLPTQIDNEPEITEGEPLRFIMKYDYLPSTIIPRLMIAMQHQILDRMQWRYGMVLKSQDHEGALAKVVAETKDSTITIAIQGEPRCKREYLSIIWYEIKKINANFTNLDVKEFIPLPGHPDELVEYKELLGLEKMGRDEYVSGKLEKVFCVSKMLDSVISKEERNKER

Take `Nc1nc2c(ncn2[C@@H]2O[C@H](COP(=O)(O)OP(=O)(O)OP(=O)(O)O)[C@@H](O)[C@H]2O)c(=O)[nH]1` [GTP]: the “stopped-flow Cy3/Cy5 FRET, monomerization” value on CtRoc-COR [1] is given as “a fast decrease in FRET signal is observed upon mixing the protein”.

For `Nc1nc2c(ncn2[C@@H]2O[C@H](COP(=O)(O)OP(=O)(O)O)[C@@H](O)[C@H]2O)c(=O)[nH]1` [GDP], the “SEC-SAXS (conformational change)” value on CtRoc-COR [2] is “when CtRoc-COR is saturated with either GDP or GppNHp conformational changes are taking place”. For the same molecule, the “SEC-SAXS, AUC, negative-stain EM (conformational and oligomeric change)” value at CtRoco [3] is “conformational changes occur in both the CtRoco GppNHp- and GDP-bound states”.

As to `Nc1nc2c(ncn2[C@@H]2O[C@H](COP(=O)(O)OP(=O)(O)NP(=O)(O)O)[C@@H](O)[C@H]2O)c(=O)[nH]1` [GppNHp], the “SEC-SAXS, SEC-MALS, native MS, SV-AUC (oligomeric shift)” value on CtRoc-COR [4] is “the GTP mimic GppNHp induces monomerization in a concentration dependent manner”. Also, the “SEC-SAXS, SEC-MALS, native MS, AUC, negative-stain EM (oligomeric shift)” value at CtRoco [5] is “As for CtRoc-COR this indicates that GppNHp induces monomerization”.

B1: Roco protein from Chlorobium tepidum (CtRoco), full length (natural protein, UniProt Q8KC98 1-1102, looked up)
chain: MSDLDVIRQIEQELGMQLEPVDKLKWYSKGYKLDKDQRVTAIGLYDCGSDTLDRIIQPLESLKSLSELSLSSNQITDISPLASLNSLSMLWLDRNQITDIAPLASLNSLSMLWLFGNKISDIAPLESLKSLTELQLSSNQITDIAPLASLKSLTELSLSGNNISDIAPLESLKSLTELSLSSNQITDIAPLASLKSLTELSLSSNQISDIAPLESLKSLTELQLSRNQISDIAPLESLKSLTELQLSSNQITDIAPLASLKSLTELQLSRNQISDIAPLESLNSLSKLWLNGNQITDIAPLASLNSLTELELSSNQITDIAPLASLKSLSTLWLSSNQISDIAPLASLESLSELSLSSNQISDISPLASLNSLTGFDVRRNPIKRLPETITGFDMEILWNDFSSSGFITFFDNPLESPPPEIVKQGKEAVRQYFQSIEEARSKGEALVHLQEIKVHLIGDGMAGKTSLLKQLIGETFDPKESQTHGLNVVTKQAPNIKGLENDDELKECLFHFWDFGGQEIMHASHQFFMTRSSVYMLLLDSRTDSNKHYWLRHIEKYGGKSPVIVVMNKIDENPSYNIEQKKINERFPAIENRFHRISCKNGDGVESIAKSLKSAVLHPDSIYGTPLAPSWIKVKEKLVEATTAQRYLNRTEVEKICNDSGITDPGERKTLLGYLNNLGIVLYFEALDLSEIYVLDPHWVTIGVYRIINSSKTKNGHLNTSALGYILNEEQIRCDEYDPAKNNKFTYTLLEQRYLLDIMKQFELCYDEGKGLFIIPSNLPTQIDNEPEITEGEPLRFIMKYDYLPSTIIPRLMIAMQHQILDRMQWRYGMVLKSQDHEGALAKVVAETKDSTITIAIQGEPRCKREYLSIIWYEIKKINANFTNLDVKEFIPLPGHPDELVEYKELLGLEKMGRDEYVSGKLEKVFSVSKMLDSVISKEERNKERLMGDINIKLENIGNPTIPIHQQVEVNVSQETVQHVENLQGFFENLKADILREAELEIDDPKERKRLANELELAENAITKMDAAVKSGKNKLKPDVKDRLGEFIDNLANENSRLRKGIALVMNGAEKVQKLARYYNNVAPFFDLPSVPPVLLGKEKT
notes: Roco protein from Chlorobium tepidum (CtRoco), a.a; 1-1102: LRR domain (1-411), Roc-COR module (412-946), C-terminal region (947-1102); also called CtRoco wt; C. tepidum Roco protein; source: E. coli BL21 (DE3), purified (Ni-NTA IMAC, EDTA treatment, Superdex S200 SEC)
As to B1, the monomer-dimer ratio in [6] is 1 monomer/dimer. The “stoichiometry N” value in [7] turned out to be 2. Besides, the Kd was about 2 µM in series [8] and about 30 µM in series [9].
